Measured values from ChEMBL document CHEMBL1134846, “Substituted pyrazolopyridines as potent and selective PDE5 inhibitors: potential agents for treatment of erectile dysfunction” (J Med Chem, 2001).

Assays:
[1] = target: T1, cGMP-specific 3',5'-cyclic phosphodiesterase (Homo sapiens, UniProt O76074); assay: Inhibition of PDE5 of human platelets
[2] = Selectivity for PDE5 of human platelets over PDE2 of rat kidney
[3] = Selectivity for PDE5 of human platelets over PDE4 of rat kidney
[4] = Selectivity for PDE5 of human platelets over PDE6 of bovine retina
[5] = Selectivity for PDE5 of human platelets over PDE1 of bovine heart
[6] = Bioavailability was determined in dogs.; type: ADME, organism-based, Canis lupus familiaris; conditions: dog, in vivo
[7] = Bioavailability was determined in male rats.; type: ADME, organism-based; conditions: rat, in vivo
[8] = Half life was determined in dogs; type: ADME, organism-based, Canis lupus familiaris; conditions: dog, in vivo
[9] = Half life was determined in male rats.; type: ADME, organism-based; conditions: rat, in vivo
[10] = Half life was determined in dogs after a dose of 23 uM/kg.; type: ADME, organism-based, Canis lupus familiaris; conditions: dog, in vivo
[11] = Half life was determined in male rats after a dose of 21 uM/kg.; type: ADME, organism-based; conditions: rat, in vivo
[12] = Bioavailability was determined in dogs after a dose of 23 uM/kg.; type: ADME, organism-based, Canis lupus familiaris; conditions: dog, in vivo
[13] = Bioavailability was determined in male rats after a dose of 21 uM/kg.; type: ADME, organism-based; conditions: rat, in vivo
[14] = target: T1, cGMP-specific 3',5'-cyclic phosphodiesterase; assay: Relaxant effect on rabbit corpus cavernosal tissue strips; type: tissue-based, Oryctolagus cuniculus, Corpus cavernosum; conditions: target entry is the homologue from another species

IC50 [1]	IC50 ratio [2]	IC50 ratio [3]	IC50 ratio [4]	IC50 ratio [5]	Compound	also measured
1.6 nM	3000	460	19	2900	CCn1ncc2c(NCc3ccc(OC)c(Cl)c3)c(C(=O)NCCCN3CCCC3=O)cnc21	–
–	–	–	–	–	CCCc1nn(C)c2c(=O)[nH]c(-c3cc(S(=O)(=O)N4CCN(C)CC4)ccc3OCC)nc12	bioavailability [6]: 54%; bioavailability [7]: 15%; half-life [8]: 312 min; half-life [9]: 18 min
180 nM	45	1	2	43	CCCCNc1c(C(=O)OCC)cnc2c1cnn2CC [CARTAZOLATE]	–
1 nM	–	–	–	–	CCn1ncc2c(N[C@@H](C)C3CCCCC3)c3cc(C#N)ccc3nc21	–
0.8 nM	9200	600	47	6400	CCn1ncc2c(NCc3ccc(OC)c(Cl)c3)c(C(=O)NCc3ccncc3)cnc21	half-life [10]: 138 min; half-life [11]: 72 min; bioavailability [12]: 66%; bioavailability [13]: 33%; EC50 [14]: 44 nM
1.4 nM	5200	340	35	2700	CCn1ncc2c(NCc3ccc(OC)c(Cl)c3)c(C(=O)NCCCCCO)cnc21	–
38 nM	–	–	–	–	CCn1ncc2c(NCc3ccc(OC)c(Cl)c3)c(C(=O)O)cnc21	–
1.8 nM	8000	760	22	2500	CCn1ncc2c(NCc3ccc(OC)c(Cl)c3)c(C(=O)NC[C@@H]3CCCO3)cnc21	–
